Tests used:
[1] = biological target: T1, His tagged PTPN2 (TC45) protein (Homo sapiens, UniProt P17706); test: Mobility shift assay used to determine potency of PTPN2 inhibitors; assay type: biochemical; settings: enzyme 0.5 nM, substrate 2 μM; read-out: PTPN2 MSA IC50
T1 construct: made in house
T1 sequence (P17706 with tags, fused parts or gaps isoform P17706-2): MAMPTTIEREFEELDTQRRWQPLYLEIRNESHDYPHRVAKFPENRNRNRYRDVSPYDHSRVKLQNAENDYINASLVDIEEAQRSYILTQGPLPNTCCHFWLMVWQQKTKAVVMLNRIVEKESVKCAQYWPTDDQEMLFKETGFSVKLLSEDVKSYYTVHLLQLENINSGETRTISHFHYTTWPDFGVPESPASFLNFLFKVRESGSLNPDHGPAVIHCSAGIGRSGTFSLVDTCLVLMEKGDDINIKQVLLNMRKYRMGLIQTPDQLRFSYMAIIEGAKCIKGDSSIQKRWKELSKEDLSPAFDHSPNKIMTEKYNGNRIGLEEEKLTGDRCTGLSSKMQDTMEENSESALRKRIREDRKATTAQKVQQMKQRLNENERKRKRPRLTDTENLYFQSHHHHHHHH
Summary of the method: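 Microfluidic mobility-shift read-out (488/530 nm) of dephosphorylation of an OG488-tagged phosphotyrosine insulin receptor peptide, 2 μM, over 10 min at room temperature, after 10 min compound preincubation with 0.5 nM enzyme. Buffer: 50 mM HEPES pH 7.5, EGTA, EDTA, Tween 20, DTT. IC50 derived from % inhibition over 12-point 1:3 series.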

[2] = biological target: T2, His tagged full-length PTPN1 protein (Homo sapiens, UniProt P18031); test: Mobility shift assay (MSA) used to determine potency of PTPN1 inhibitors; assay type: biochemical; settings: enzyme 0.5 nM, substrate 2 μM
T2 construct: made in house
T2 sequence (P18031 with tags, fused parts or gaps): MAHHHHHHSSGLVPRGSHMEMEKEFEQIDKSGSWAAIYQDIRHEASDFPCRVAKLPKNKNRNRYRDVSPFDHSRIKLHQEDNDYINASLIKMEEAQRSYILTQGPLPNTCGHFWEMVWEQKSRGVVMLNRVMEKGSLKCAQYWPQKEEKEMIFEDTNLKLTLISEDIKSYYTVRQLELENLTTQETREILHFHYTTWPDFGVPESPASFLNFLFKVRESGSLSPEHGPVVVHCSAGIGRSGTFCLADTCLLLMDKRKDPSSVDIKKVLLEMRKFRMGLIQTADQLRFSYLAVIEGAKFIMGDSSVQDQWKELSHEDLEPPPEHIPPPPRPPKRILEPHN
Summary of the method: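 Full-length His-tagged human PTPN1 (0.5 nM) was preincubated 10 min at room temperature with compound (12-point, 1:3 dilution) in HEPES pH 7.5 buffer with EGTA, EDTA, Tween 20 and DTT. A 2 μM fluorescent phospho-insulin receptor peptide was then added for 10 min before quench. Mobility-shift % conversion gave % inhibition and IC50.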

[3] = test system: B16F10 mouse melanoma cells; test: B16F10 IFNγ-induced cellular growth inhibition assay; assay type: cell-based; settings: B16-F10, with 0.5 ng/mL IFNγ, read-out: B16F10 GI IC50
Summary of the method: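 B16F10 cells grown in DMEM+10% FBS, with or without 0.5 ng/mL final mouse IFNγ, and dosed in triplicate at 100 μM to 0.001 μM final (0.1% DMSO). Confluence imaged every 6 h for 5 days; percent growth inhibition versus DMSO/with-IFNγ control taken once DMSO/no-IFNγ wells exceeded 95% confluence, giving IC50.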

| SMILES | IC50 [1] | IC50 [2] | IC50 [3] |
| --- | --- | --- | --- |
| O=C1CN(c2c(O)cc3c(c2F)CC(NCCCC(F)(F)F)CC3)S(=O)(=O)N1 (stereo not drawn) [Compound 120, 5-{1-fluoro-3-hydroxy-7-[(4,4,4-trifluorobutyl)amino]-5,6,7,8-tetrahydronaphthalen-2-yl}-1λ^6,2,5-thiadiazolidine-1,1,3-trione] | 1 to 10 nM | 1 to 10 nM | < 1000 nM |
| COC(C)(C)CCNC1CCc2cc(O)c(N3CC(=O)NS3(=O)=O)c(F)c2C1 (stereo not drawn) [Compound 122, 5-{1-fluoro-3-hydroxy-7-[(3-methoxy-3-methylbutyl)amino]-5,6,7,8-tetrahydronaphthalen-2-yl}-1λ^6,2,5-thiadiazolidine-1,1,3-trione] | 1 to 10 nM | 10 to 100 nM | 1000 to 10000 nM |
| CC(C)(CCNC1CCc2cc(O)c(N3CC(=O)NS3(=O)=O)c(F)c2C1)C(F)(F)F (stereo not drawn) [Compound 123, 5-{1-fluoro-3-hydroxy-7-[(4,4,4-trifluoro-3,3-dimethylbutyl)amino]-5,6,7,8-tetrahydronaphthalen-2-yl}-1λ^6,2,5-thiadiazolidine-1,1,3-trione] | 1 to 10 nM | 1 to 10 nM | 1000 to 10000 nM |
| O=C1CN(c2c(O)cc3c(c2F)CC(NCCC2(C(F)(F)F)CC2)CC3)S(=O)(=O)N1 (stereo not drawn) [Compound 124, 5-[1-fluoro-3-hydroxy-7-({2-[1-(trifluoromethyl)cyclopropyl]ethyl}amino)-5,6,7,8-tetrahydronaphthalen-2-yl]-1λ^6,2,5-thiadiazolidine-1,1,3-trione] | 1 to 10 nM | 1 to 10 nM | < 1000 nM |
| O=C1CN(c2c(O)cc3c(c2F)CC(NCC(F)(F)c2ccccc2)CC3)S(=O)(=O)N1 (stereo not drawn) [Compound 125, 5-{7-[(2,2-difluoro-2-phenylethyl)amino]-1-fluoro-3-hydroxy-5,6,7,8-tetrahydronaphthalen-2-yl}-1λ^6,2,5-thiadiazolidine-1,1,3-trione] | 1 to 10 nM | 10 to 100 nM | 10000 to 100000 nM |
| O=C1CN(c2c(O)cc3c(c2F)CC(NCC(F)(F)CC2CC2)CC3)S(=O)(=O)N1 (stereo not drawn) [Compound 126, 5-{7-[(3-cyclopropyl-2,2-difluoropropyl)amino]-1-fluoro-3-hydroxy-5,6,7,8-tetrahydronaphthalen-2-yl}-1λ^6,2,5-thiadiazolidine-1,1,3-trione] | 1 to 10 nM | 1 to 10 nM | 1000 to 10000 nM |
| CC(C)(O)CCNC1CCc2cc(O)c(N3CC(=O)NS3(=O)=O)c(F)c2C1 (stereo not drawn) [Compound 127, 5-{1-fluoro-3-hydroxy-7-[(3-hydroxy-3-methylbutyl)amino]-5,6,7,8-tetrahydronaphthalen-2-yl}-1λ^6,2,5-thiadiazolidine-1,1,3-trione] | 1 to 10 nM | 1 to 10 nM | < 1000 nM |
| CC(C)CCN(C)C1CCc2cc(O)c(N3CC(=O)NS3(=O)=O)c(F)c2C1 (stereo not drawn) [Compound 128, 5-{1-fluoro-3-hydroxy-7-[methyl(3-methylbutyl)amino]-5,6,7,8-tetrahydronaphthalen-2-yl}-1λ^6,2,5-thiadiazolidine-1,1,3-trione] | 1 to 10 nM | 1 to 10 nM | 1000 to 10000 nM |
| CC(C)CCCNC1CCc2cc(O)c(N3CC(=O)NS3(=O)=O)c(F)c2C1 (stereo not drawn) [Compound 129, 5-{1-fluoro-3-hydroxy-7-[(4-methylpentyl)amino]-5,6,7,8-tetrahydronaphthalen-2-yl}-1λ^6,2,5-thiadiazolidine-1,1,3-trione] | 1 to 10 nM | 1 to 10 nM | < 1000 nM |
| O=C1CN(c2c(O)cc3c(c2F)CC(NCCC(O)(C(F)(F)F)C(F)(F)F)CC3)S(=O)(=O)N1 (stereo not drawn) [Compound 130, 5-(1-fluoro-3-hydroxy-7-{[4,4,4-trifluoro-3-hydroxy-3-(trifluoromethyl)butyl]amino}-5,6,7,8-tetrahydronaphthalen-2-yl)-1λ^6,2,5-thiadiazolidine-1,1,3-trione] | 1 to 10 nM | 1 to 10 nM | 1000 to 10000 nM |
| O=C1CN(c2c(O)cc3c(c2F)CC(NCCC(C(F)(F)F)C(F)(F)F)CC3)S(=O)(=O)N1 (stereo not drawn) [Compound 131, 5-(1-fluoro-3-hydroxy-7-{[4,4,4-trifluoro-3-(trifluoromethyl)butyl]amino}-5,6,7,8-tetrahydronaphthalen-2-yl)-1λ^6,2,5-thiadiazolidine-1,1,3-trione] | 1 to 10 nM | 1 to 10 nM | < 1000 nM |
| O=C1CN(c2c(O)cc3c(c2F)CC(NCCc2ccccn2)CC3)S(=O)(=O)N1 (stereo not drawn) [Compound 135, 5-(1-fluoro-3-hydroxy-7-{[2-(pyridin-2-yl)ethyl]amino}-5,6,7,8-tetrahydronaphthalen-2-yl)-1λ^6,2,5-thiadiazolidine-1,1,3-trione] | 10 to 100 nM | 10 to 100 nM | 1000 to 10000 nM |
| O=C1CN(c2c(O)cc3c(c2F)CC(OCCCC(F)(F)F)CC3)S(=O)(=O)N1 (stereo not drawn) [Compound 142, 5-[1-fluoro-3-hydroxy-7-(4,4,4-trifluorobutoxy)-5,6,7,8-tetrahydronaphthalen-2-yl]-1λ^6,2,5-thiadiazolidine-1,1,3-trione] | 1 to 10 nM | 10 to 100 nM | 10000 to 100000 nM |
| CC(C)(C#N)CCNC1CCc2cc(O)c(N3CC(=O)NS3(=O)=O)c(F)c2C1 (stereo not drawn) [Compound 150, 4-{[8-fluoro-6-hydroxy-7-(1,1,4-trioxo-1λ^6,2,5-thiadiazolidin-2-yl)-1,2,3,4-tetrahydronaphthalen-2-yl]amino}-2,2-dimethylbutanenitrile] | 1 to 10 nM | 1 to 10 nM | 1000 to 10000 nM |
| O=C1CN(c2c(O)cc3c(c2F)CC(NCCC(O)C(F)(F)F)CC3)S(=O)(=O)N1 (stereo not drawn) [Compound 151, 5-{1-fluoro-3-hydroxy-7-[(4,4,4-trifluoro-3-hydroxybutyl)amino]-5,6,7,8-tetrahydronaphthalen-2-yl}-1λ^6,2,5-thiadiazolidine-1,1,3-trione] | 1 to 10 nM | 10 to 100 nM | 1000 to 10000 nM |
| O=C1CN(c2c(O)cc3c(c2F)CC(NCC(O)CC(F)(F)F)CC3)S(=O)(=O)N1 (stereo not drawn) [Compound 156, 5-{1-fluoro-3-hydroxy-7-[(4,4,4-trifluoro-2-hydroxybutyl)amino]-5,6,7,8-tetrahydronaphthalen-2-yl}-1λ^6,2,5-thiadiazolidine-1,1,3-trione] | 1 to 10 nM | 1 to 10 nM | < 1000 nM |
| O=C1CN(c2c(O)cc3c(c2F)CC(NCCOC(F)F)CC3)S(=O)(=O)N1 (stereo not drawn) [Compound 157, 5-(7-{[2-(difluoromethoxy)ethyl]amino}-1-fluoro-3-hydroxy-5,6,7,8-tetrahydronaphthalen-2-yl)-1λ^6,2,5-thiadiazolidine-1,1,3-trione] | 1 to 10 nM | 10 to 100 nM | 1000 to 10000 nM |
| CC(C)C1CCN(C2CCc3cc(O)c(N4CC(=O)NS4(=O)=O)c(F)c3C2)C1 (stereo not drawn) [Compound 172, 5-{1-fluoro-3-hydroxy-7-[3-(propan-2-yl)pyrrolidin-1-yl]-5,6,7,8-tetrahydronaphthalen-2-yl}-1λ^6,2,5-thiadiazolidine-1,1,3-trione] | 10 to 100 nM | 10 to 100 nM | 1000 to 10000 nM |
| O=C1CN(c2c(O)cc3c(c2F)CC(NCCC2CCCCC2)CC3)S(=O)(=O)N1 (stereo not drawn) [Compound 173, 5-{7-[(2-cyclohexylethyl)amino]-1-fluoro-3-hydroxy-5,6,7,8-tetrahydronaphthalen-2-yl}-1λ^6,2,5-thiadiazolidine-1,1,3-trione] | 1 to 10 nM | 1 to 10 nM | < 1000 nM |
| CC(C)(C)CCNC1CCc2cc(O)c(N3CC(=O)NS3(=O)=O)c(F)c2C1 (stereo not drawn) [Compound 174, 5-{7-[(3,3-dimethylbutyl)amino]-1-fluoro-3-hydroxy-5,6,7,8-tetrahydronaphthalen-2-yl}-1λ^6,2,5-thiadiazolidine-1,1,3-trione] | 1 to 10 nM | 1 to 10 nM | < 1000 nM |
| CCCCNC1CCc2cc(O)c(N3CC(=O)NS3(=O)=O)c(F)c2C1 (stereo not drawn) [Compound 175, 5-[7-(butylamino)-1-fluoro-3-hydroxy-5,6,7,8-tetrahydronaphthalen-2-yl]-1λ^6,2,5-thiadiazolidine-1,1,3-trione] | 1 to 10 nM | 10 to 100 nM | < 1000 nM |

— patent US10851073B2, “Protein tyrosine phosphatase inhibitors and methods of use thereof” (Calico Life Sciences LLC, priority 2019, dated 2020)
